# Data published in patent US20240408169A1 (priority 2023, published 2024).
# Where two headings read alike, the source gives them in different places. *1 amine or outer side, *2 acyl side, *3 side chain or, on linkers, in order; H or OH if unused. Where a SMILES comes first, the peptide text is derived from it. Bridges are numbered along the chain shown (N, C = ends). [ ]: non-standard residue; d: D form. The star is where a group is joined. NMePhe(2-(4-MorPh),5-Cl) = CN[C@@H](Cc1cc(Cl)ccc1-c1ccc(N2CCOCC2)cc1)C(=O)O; X91 = COc1cc(-c2ccc(Cl)cc2C[C@@H](C(=O)[*:2])N(C)[*:1])ccc1N1CCOCC1; X79 = CC(C)n1cc(-c2ccc(Cl)cc2C[C@@H](C(=O)[*:2])N(C)[*:1])cn1; X19 = CN([C@@H](Cc1cc(Cl)ccc1-c1ccn2ccnc2c1)C(=O)[*:2])[*:1]; X83 = CN([C@@H](Cc1cc(Cl)ccc1-c1cnn2c1COCC2)C(=O)[*:2])[*:1]; NMehhhLys(Me) = CN([C@@H](CCCCCCCN(C)[*:3])C(=O)[*:2])[*:1]; X15 = CN([C@@H](Cc1cc(Cl)ccc1-c1cnn2c1CCC2)C(=O)[*:2])[*:1]; NMe(hhhLys) = CN([C@@H](CCCCCCCN[*:3])C(=O)[*:2])[*:1]; NMe3Pal(2-OMe,5-Cl) = CN[C@@H](Cc1cc(Cl)cnc1OC)C(=O)O; Cyclobutanecarbonyl(1-CF3) = O=C(C1(C(F)(F)F)CCC1)*; X88 = CC(C)c1ccc(Cl)cc1C[C@@H](C(=O)[*:2])N(C)[*:1]; cBuCO(3,3-F2-1-CF3) = O=C(C1(C(F)(F)F)CC(F)(F)C1)*; Pro(trans-4-F) = O=C(O)[C@@H]1C[C@@H](F)CN1; Gly(cPr) = N[C@H](C(=O)O)C1CC1; X20 = O=C(C1(Cl)CC1)*
# Columns and labels:
# CyclinA2/CDK2 = molecular target: T1, CyclinA2/CDK2 (Homo sapiens, UniProt P20248); assay: Fluorescence Polarization (FP) competitive binding assay, Cyclin A2/Cdk2;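 also: plates equilibrated two hours at room temperature before polarization reading, IC50 fitted from eight-concentration compound titration curves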
# T1 construct: purchased CRELUX Protein Services
# CyclinB1/CDK1 = molecular target: T2, CyclinB1/CDK1 (Homo sapiens, UniProt P14635); assay: Fluorescence Polarization (FP) competitive binding assay, Cyclin B1/Cdk1;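 also: fluorescence polarization read after equilibration at room temperature, with IC50 taken from serially diluted dose-response curves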
# T2 construct: purchased Eurofins, discovery 14-450
# CyclinE1/CDK2 = molecular target: T3, CyclinE1/CDK2 (Homo sapiens, UniProt P24864); assay: Fluorescence Polarization (FP) competitive binding assay, Cyclin E1/Cdk2;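 also: readings taken after two-hour equilibration at room temperature in HEPES buffer with NaCl, DTT, NP-40 and BSA, IC50 fitted from eight-concentration serial dilution series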
# T3 construct: purchased Eurofins, discovery 14-475
# WI-38 cells = assay: MTT proliferation assay, WI-38; type: cell-based; conditions: 3 days compound exposure, 1:3 serial dilution starting at 10 μM;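 also: Eight- or ten-point dilution series, with exposure length chosen to span about three to four cell doublings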
# NCI-H1048 cells = assay: MTT proliferation assay, NCI-H1048; type: cell-based; conditions: 5 days compound exposure, 1:3 serial dilution starting at 10 μM;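 also: Dose-response in 96-well plates over 8 or 10 concentration points, with exposure spanning 3-4 cell doublings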
# OVCAR3 cells = assay: MTT proliferation assay, OVCAR3; type: cell-based; conditions: 5 days compound exposure, 1:3 serial dilution starting at 10 μM;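 also: compound given as an 8- or 10-point series, one day after plating, with exposure covering roughly 3-4 cell doublings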
# [1] = 8 nM Cyclin A2/Cdk2, 2 nM FAM probe, average of 2-3 independent experiments, read-out: Cyclin A FP IC50
# [2] = 10 nM Cyclin B1/Cdk1, 2 nM FAM probe; average of 2-3 independent experiments; read-out: Cyclin B FP IC50
# [3] = 10 nM Cyclin E1/Cdk2, 2 nM FAM probe, average of 2-3 independent experiments, read-out: Cyclin E FP IC50
# [4] = read-out: Cyclin B FP IC50; 10 nM Cyclin B1/Cdk1, 2 nM FAM probe; average of 2-3 independent experiments
structure (smiles),measurement,setting,value
"COc1cc(-c2ccc(Cl)cc2C[C@H]2C(=O)N(C)CCCCCCC[C@H](N(C)C(=O)[C@@H](NC(=O)[C@@H]3C[C@@H](F)CN3C(=O)C3(C(F)(F)F)CC(F)(F)C3)C3CC3)C(=O)N[C@@H](CC(C)C)C(=O)N2C)ccc1N1CCOCC1 [Example 367] ({cBuCO(3,3-F2-1-CF3)}-[Pro(trans-4-F)][Gly(cPr)][NMehhhLys(Me)]L[X91]; lactam 3-C)",IC50,CyclinA2/CDK2; [1],20 nM
same,IC50,CyclinB1/CDK1; [2],20 nM
same,IC50,CyclinE1/CDK2; [3],1100 nM
same,GI50,WI-38 cells,14700 nM
same,GI50,NCI-H1048 cells,20 nM
same,GI50,OVCAR3 cells,10 nM
"COc1ncc(Cl)cc1C[C@H]1C(=O)N(C)CCCCCCC[C@H](N(C)C(=O)[C@@H](NC(=O)[C@@H]2C[C@@H](F)CN2C(=O)C2(C(F)(F)F)CCC2)C2CC2)C(=O)N[C@@H](CC(C)C)C(=O)N1C [Example 224] ({Cyclobutanecarbonyl(1-CF3)}-[Pro(trans-4-F)][Gly(cPr)][NMehhhLys(Me)]L[NMe3Pal(2-OMe,5-Cl)]; lactam 3-C)",IC50,CyclinA2/CDK2; [1],30 nM
same,IC50,CyclinB1/CDK1; [2],20 nM
same,IC50,CyclinE1/CDK2; [3],100 nM
same,GI50,WI-38 cells,12400 nM
same,GI50,NCI-H1048 cells,10 nM
same,GI50,OVCAR3 cells,10 nM
"CC(C)C[C@@H]1NC(=O)[C@@H](N(C)C(=O)[C@@H](NC(=O)[C@@H]2C[C@@H](F)CN2C(=O)C2(C(F)(F)F)CC(F)(F)C2)C2CC2)CCCCCCCN(C)C(=O)[C@H](Cc2cc(Cl)ccc2-c2ccn3ccnc3c2)N(C)C1=O [Example 236] ({cBuCO(3,3-F2-1-CF3)}-[Pro(trans-4-F)][Gly(cPr)][NMehhhLys(Me)]L[X19]; lactam 3-C)",IC50,CyclinA2/CDK2; [1],30 nM
same,IC50,CyclinB1/CDK1; [2],20 nM
same,IC50,CyclinE1/CDK2; [3],780 nM
same,GI50,WI-38 cells,7330 nM
same,GI50,NCI-H1048 cells,10 nM
same,GI50,OVCAR3 cells,20 nM
"CC(C)C[C@@H]1NC(=O)[C@@H](N(C)C(=O)[C@@H](NC(=O)[C@@H]2C[C@@H](F)CN2C(=O)C2(C(F)(F)F)CC(F)(F)C2)C2CC2)CCCCCCCNC(=O)[C@H](Cc2cc(Cl)ccc2C(C)C)N(C)C1=O [Example 63] ({cBuCO(3,3-F2-1-CF3)}-[Pro(trans-4-F)][Gly(cPr)][NMe(hhhLys)]L[X88]; lactam 3-C)",IC50,CyclinA2/CDK2; [1],120 nM
same,IC50,CyclinB1/CDK1; [2],20 nM
same,IC50,CyclinE1/CDK2; [3],3510 nM
same,GI50,WI-38 cells,3170 nM
same,GI50,NCI-H1048 cells,110 nM
same,GI50,OVCAR3 cells,240 nM
"CC(C)C[C@@H]1NC(=O)[C@@H](N(C)C(=O)[C@@H](NC(=O)[C@@H]2C[C@@H](F)CN2C(=O)C2(C(F)(F)F)CC(F)(F)C2)C2CC2)CCCCCCCN(C)C(=O)[C@H](Cc2cc(Cl)ccc2-c2cnn3c2COCC3)N(C)C1=O [Example 233] ({cBuCO(3,3-F2-1-CF3)}-[Pro(trans-4-F)][Gly(cPr)][NMehhhLys(Me)]L[X83]; lactam 3-C)",IC50,CyclinA2/CDK2,50 nM
same,IC50,CyclinB1/CDK1; [4],20 nM
same,IC50,CyclinE1/CDK2,1600 nM
same,GI50,WI-38 cells,15200 nM
same,GI50,NCI-H1048 cells,30 nM
same,GI50,OVCAR3 cells,30 nM
"CC(C)C[C@@H]1NC(=O)[C@@H](N(C)C(=O)[C@@H](NC(=O)[C@@H]2C[C@@H](F)CN2C(=O)C2(C(F)(F)F)CC(F)(F)C2)C2CC2)CCCCCCCN(C)C(=O)[C@H](Cc2cc(Cl)ccc2-c2cnn(C(C)C)c2)N(C)C1=O [Example 111] ({cBuCO(3,3-F2-1-CF3)}-[Pro(trans-4-F)][Gly(cPr)][NMehhhLys(Me)]L[X79]; lactam 3-C)",IC50,CyclinA2/CDK2; [1],20 nM
same,IC50,CyclinB1/CDK1; [2],20 nM
same,IC50,CyclinE1/CDK2; [3],280 nM
same,GI50,WI-38 cells,8130 nM
same,GI50,NCI-H1048 cells,10 nM
same,GI50,OVCAR3 cells,10 nM
CCN(C(=O)[C@@H](NC(=O)[C@@H]1C[C@@H](F)CN1C(=O)C1(C(F)(F)F)CCC1)C1CC1)[C@H]1CCCCCCCN(C)C(=O)[C@H](Cc2cc(Cl)cnc2OC2CC2)N(C)C(=O)[C@H](CC(C)C)NC1=O [Example 220],IC50,CyclinA2/CDK2,90 nM
same,IC50,CyclinB1/CDK1; [4],20 nM
same,IC50,CyclinE1/CDK2,680 nM
same,GI50,WI-38 cells,5200 nM
same,GI50,NCI-H1048 cells,30 nM
same,GI50,OVCAR3 cells,70 nM
"CC(C)C[C@@H]1NC(=O)[C@@H](N(C)C(=O)[C@@H](NC(=O)[C@@H]2C[C@@H](F)CN2C(=O)C2(Cl)CC2)C2CC2)CCCCCCCN(C)C(=O)[C@H](Cc2cc(Cl)ccc2-c2ccc(N3CCOCC3)cc2)N(C)C1=O [Example 398] (X20-[Pro(trans-4-F)][Gly(cPr)][NMehhhLys(Me)]L[NMePhe(2-(4-MorPh),5-Cl)]; lactam 3-C)",IC50,CyclinA2/CDK2; [1],20 nM
same,IC50,CyclinB1/CDK1; [2],20 nM
same,IC50,CyclinE1/CDK2; [3],590 nM
same,GI50,WI-38 cells,3640 nM
same,GI50,NCI-H1048 cells,140 nM
same,GI50,OVCAR3 cells,190 nM
"CC(C)C[C@@H]1NC(=O)[C@@H](N(C)C(=O)[C@@H](NC(=O)[C@@H]2C[C@@H](F)CN2C(=O)C2(C(F)(F)F)CC(F)(F)C2)C2CC2)CCCCCCCN(C)C(=O)[C@H](Cc2cc(Cl)ccc2-c2cnn3c2CCC3)N(C)C1=O [Example 190] ({cBuCO(3,3-F2-1-CF3)}-[Pro(trans-4-F)][Gly(cPr)][NMehhhLys(Me)]L[X15]; lactam 3-C)",IC50,CyclinA2/CDK2; [1],20 nM
same,IC50,CyclinB1/CDK1; [2],20 nM
same,IC50,CyclinE1/CDK2; [3],660 nM
same,GI50,WI-38 cells,1980 nM
same,GI50,NCI-H1048 cells,10 nM
same,GI50,OVCAR3 cells,10 nM
